System: horses
Test: Target Animal Safety (TAS) study / toxicity of formulations in horses
Assay type: in vivo
Details: in vivo
Excerpt: The drug product vehicle contains about 35-45 wt % alcohol, 46 wt % propylene glycol and 10 wt % WFI. […] Test doses (in horses) with the vehicle confirmed that the dose toxicity was due to the vehicle. More specifically, propylene glycol was believed to be the cause of toxicity.

Q: `CNC[C@H](O)[C@@H](O)[C@H](O)[C@H](O)CO` [meglumine, 1-Deoxy-1-methylaminosorbitol] was tested. Which Toxicity to horses did it give?
A: non-toxic

Source: patent US20220387433A1, “TYPE V PHOSPHODIESTERASE INHIBITOR COMPOSITIONS, METHODS OF MAKING THEM AND METHODS OF USING THEM IN PREVENTING OR TREATING ELEVATED PULMONARY VASCULAR PRESSURE OR PULMONARY HEMORRHAGES” (American Regent, Inc., priority 2019, published 2022)
